Source: US12534496B2, “Polymorphic forms of Cyclo (-His-Pro) and methods of use to treat kidney disease” (NovMetaPharma Co., Ltd., priority 2018, dated 2026)

How the values were obtained:
Format in all cases: physicochemical
[1] = Dynamic vapor sorption (DVS) at 25 °C with post-DVS XRPD; conditions: for Post-DVS XRPD form: after DVS cycles at 25 °C
Description: DVS was carried out by placing an approximately 10-20 mg sample into a mesh vapour sorption balance pan and loaded into a DVS Intrinsic Dynamic Vapour Sorption Balance by Surface Measurement Systems. The sample was subjected to a ramping profile from 40 to 90% relative humidity (RH) at 10% increments, maintaining the sample at each step until a stable weight had been achieved (dm/dt 0.004%, minimum step length 30 minutes, maximum step length 500 minutes) at 25° C. After completion of the sorption cycle, the sample was dried using the same procedure to 0% RH and then a second sorption cycle back to 40% RH. Two cycles were performed. The weight change during the sorption/desorption cycles were plotted, allowing for the hygroscopic nature of the sample to be determined. XRPD analysis was then carried out on any solid retained.
Approximately, 10-20 mg of sample was placed into a mesh vapor sorption balance pan and loaded into a DVS Intrinsic dynamic vapor sorption balance by Surface Measurement Systems. The sample was subjected to a ramping profile from 40-90% relative humidity (RH) at 10% increments, maintaining the sample at each step until a stable weight had been achieved (dm/dt 0.004%, minimum step length 30 minutes, maximum step length 500 minutes) at 25° C. After completion of the sorption cycle, the sample was dried using the same procedure to 0% RH and then a second sorption cycle back to 40% RH. Two cycles were performed. The weight change during the sorption/desorption cycles were plotted, allowing for the hygroscopic nature of the sample to be determined. XRPD analysis was then carried out on any solid retained.

[2] = Drug substance stability study, 40±2 °C/75±5% RH (appearance, assay, impurities, chiral, water content, XRPD); conditions: for XRPD: reference standard of Pattern 2
Description: (§1) Packaging: Sample at each individual time point was packaged into double Antistatic LDPE bags both secured with cable ties. The sample packed for the same storage condition were stored together within a fiber drum, and closed with metal lid. All packages were prepared in the same fashion and labeled.
(§2) Time zero will be the day samples are placed on station. Initial testing results were from the release testing as long as samples are put on station within 30 days of the release test date, otherwise, initial was repeated.
(§3) Study Requirements: Total 22.5 g sample (Total 21 g sample if initial test is not needed): • 1.5 g for initial test if needed; • 21 g sample will be divided into 14 parts, 1.5 g for each parts, sample for each part should be weighed into double Antistatic LDPE bags both secured with cable ties. The stability samples for each storage condition are stored together within a fiber drum, closed with metal lid, and then stored at 25±2° C./60+5% RH (9 bags) and 40±2° C./75±5% RH (5 bags), respectively. Sampling Time:
(§4) Samples stored not more than 6 months were pulled on schedule date or within 2 business days after the scheduled date. Samples stored more than 6 months were pulled within +2 business days of the scheduled date.
(§5) Stability samples stored for one month to one year, and greater than one year were analyzed and completed within 10 and 20 business days after the samples pulled out from stability chamber, respectively. If time zero testing was performed, it was analyzed within 10 business days after study initiation.

[3] = 8-week stability assessment at 40 °C/75% RH (XRPD, appearance, chiral HPLC); conditions: for Chiral Purity: chiral HPLC
Description: XRPD analysis was carried out on a PANalytical X'pert pro, scanning the samples between 3 and 35° 2θ. The material was gently ground to release any agglomerates and loaded onto a multi-well plate with Kapton or Mylar polymer film to support the sample. The multi-well plate was then placed into the diffractometer and analyzed using Cu K radiation (α1λ=1.54060 Å; α2=1.54443 Å; β=1.39225 Å; α1: α2 ratio=0.5) running in transmission mode (step size 0.0130° 2θ) using 40 kV/40 mA generator settings.
13. Chiral HPLC Column: Daicel IC (5.0 um, 250*4.6 mm) Column Temperature: 30° C. Injection Volume: 5 μL Flow Rate: 1.0 mL/min Mobile Phase A: 0.01% DEA in n-Hexane Mobile Phase B: EtOH:MeOH=2:8 (v/v) Diluent: Acetonitrile PDA Range: 220 nm Gradient program: […]

[4] = Drug substance stability study, 25±2 °C/60±5% RH (appearance, assay, impurities, chiral, water content, XRPD); conditions: 25° C./60% RH (table title)
Description: as §1, §2, §3, §4, §5

Question: For `O=C1N[C@@H](Cc2cnc[nH]2)C(=O)N2CCC[C@@H]12` [Pattern 2, Pyrrolo [1,2-a]pyrazine-1,4-dione, hexahydro-3-(1H-imidazol-5-ylmethyl)-, hydrate (1:1), (3S, 8aS)-], which “Post-DVS XRPD form” value [1] is on record?
Answer: no change in form

Question: What about the “Post-DVS XRPD form” value ([1]; listed as CHP pattern 2) of the same compound?
Answer: no change in form

Question: And the “DVS water loss in equivalents” value ([1]; below 10% RH, 25 °C)?
Answer: 0.5 equiv. water

Question: What about the DVS weight loss ([1]; below 10% RH, 25 °C) of the same compound?
Answer: 3.5 wt. %

Question: And the Appearance ([2]; 40 ± 2° C./75 ± 5% RH, 1M)?
Answer: Off-white

Question: What about the “Assay by HPLC” value ([2]; 40 ± 2° C./75 ± 5% RH, 1M) of the same compound?
Answer: 103.2%

Question: And the “Chiral, HPLC: chiral impurity (D, D) optical isomer” value (from here on “Chiral … (D, D) optical isomer”) ([2]; 40 ± 2° C./75 ± 5% RH, 1M)?
Answer: (D, D):N, D

Question: And the “Chiral, HPLC: chiral impurity (D, L) optical isomer” value (shortened to “Chiral … (D, L) optical isomer”) ([2]; 40 ± 2° C./75 ± 5% RH, 1M)?
Answer: (D, L):N, D

Question: And the “Chiral, HPLC: chiral impurity (L, D) optical isomer” value (“Chiral … (L, D) optical isomer” below) ([2]; 40 ± 2° C./75 ± 5% RH, 1M)?
Answer: (L, D):N, D

Question: And the “Chiral, HPLC: chiral purity” value ([2]; 40 ± 2° C./75 ± 5% RH, 1M)?
Answer: 100.0%

Question: What about the “Impurities, HPLC: H-His-OH” value ([2]; 40 ± 2° C./75 ± 5% RH, 1M) of the same compound?
Answer: 0.08%

Question: What about the “Impurities, HPLC: each other individual impurity” value ([2]; 40 ± 2° C./75 ± 5% RH, 1M) of the same compound?
Answer: individual < 0.05%

Question: What about the “Water content (KF)” value ([2]; 40 ± 2° C./75 ± 5% RH, 1M) of the same compound?
Answer: 7.2%

Question: And the Appearance ([2]; 40 ± 2° C./75 ± 5% RH, 3M)?
Answer: Off-white

Question: What about the “Assay by HPLC” value ([2]; 40 ± 2° C./75 ± 5% RH, 3M) of the same compound?
Answer: 103.3%

Question: What about the “Chiral … (D, D) optical isomer” value ([2]; 40 ± 2° C./75 ± 5% RH, 3M) of the same compound?
Answer: (D, D):N, D

Question: What about the “Chiral … (D, L) optical isomer” value ([2]; 40 ± 2° C./75 ± 5% RH, 3M) of the same compound?
Answer: (D, L):N, D

Question: What about the “Chiral … (L, D) optical isomer” value ([2]; 40 ± 2° C./75 ± 5% RH, 3M) of the same compound?
Answer: (L, D):N, D

Question: What about the “Chiral, HPLC: chiral purity” value ([2]; 40 ± 2° C./75 ± 5% RH, 3M) of the same compound?
Answer: 100.0%

Question: And the “Impurities, HPLC: H-His-OH” value ([2]; 40 ± 2° C./75 ± 5% RH, 3M)?
Answer: 0.07%

Question: What about the “Impurities, HPLC: each other individual impurity” value ([2]; 40 ± 2° C./75 ± 5% RH, 3M) of the same compound?
Answer: individual < 0.05%

Question: What about the “Water content (KF)” value ([2]; 40 ± 2° C./75 ± 5% RH, 3M) of the same compound?
Answer: 7.2%

Question: And the Appearance ([2]; 40 ± 2° C./75 ± 5% RH, 6M)?
Answer: Off-white

Question: What about the “Assay by HPLC” value ([2]; 40 ± 2° C./75 ± 5% RH, 6M) of the same compound?
Answer: 102.4%

Question: And the “Chiral … (D, D) optical isomer” value ([2]; 40 ± 2° C./75 ± 5% RH, 6M)?
Answer: (D, D):N, D

Question: What about the “Chiral … (D, L) optical isomer” value ([2]; 40 ± 2° C./75 ± 5% RH, 6M) of the same compound?
Answer: (D, L):N, D

Question: And the “Chiral … (L, D) optical isomer” value ([2]; 40 ± 2° C./75 ± 5% RH, 6M)?
Answer: (L, D):0.5%

Question: What about the “Chiral, HPLC: chiral purity” value ([2]; 40 ± 2° C./75 ± 5% RH, 6M) of the same compound?
Answer: 99.9%

Question: And the “Impurities, HPLC: C16081735-D-isomer” value ([2]; 40 ± 2° C./75 ± 5% RH, 6M)?
Answer: isomer: 0.05%

Question: And the “Impurities, HPLC: H-His-OH” value ([2]; 40 ± 2° C./75 ± 5% RH, 6M)?
Answer: 0.06%

Question: And the “Water content (KF)” value ([2]; 40 ± 2° C./75 ± 5% RH, 6M)?
Answer: 7.2%

Question: What about the XRPD ([2]; 40 ± 2° C./75 ± 5% RH, 6M) of the same compound?
Answer: Conform to reference

Question: And the Appearance ([2]; Initial (time zero))?
Answer: Off-white

Question: And the “Assay by HPLC” value ([2]; Initial (time zero))?
Answer: 103.4%

Question: What about the “Chiral … (D, D) optical isomer” value ([2]; Initial (time zero)) of the same compound?
Answer: (D, D):N, D

Question: What about the “Chiral … (D, L) optical isomer” value ([2]; Initial (time zero)) of the same compound?
Answer: (D, L):N, D

Question: And the “Chiral … (L, D) optical isomer” value ([2]; Initial (time zero))?
Answer: (L, D):N, D

Question: And the “Chiral, HPLC: chiral purity” value ([2]; Initial (time zero))?
Answer: 100.0%

Question: What about the “Impurities, HPLC: H-His-OH” value ([2]; Initial (time zero)) of the same compound?
Answer: 0.07%

Question: What about the “Impurities, HPLC: each other individual impurity” value ([2]; Initial (time zero)) of the same compound?
Answer: individual < 0.03%

Question: What about the “Water content (KF)” value ([2]; Initial (time zero)) of the same compound?
Answer: 7.4%

Question: What about the XRPD ([2]; Initial (time zero)) of the same compound?
Answer: Conform to reference

Question: And the Appearance ([3]; 2-week)?
Answer: White

Question: And the Appearance ([3]; 4-week)?
Answer: White

Question: And the “XRPD form after storage” value ([3]; 4 weeks, listed as CHP pattern 2)?
Answer: no change in form

Question: And the Appearance ([3]; 8-week)?
Answer: White

Question: And the “XRPD form after storage” value ([3]; 8 weeks)?
Answer: no change in form

Question: And the “XRPD form after storage” value ([3]; 8 weeks, listed as CHP pattern 2)?
Answer: no change in form

Question: What about the “XRPD form after storage” value ([3]; 8 weeks, listed as pattern 2 CHP) of the same compound?
Answer: pattern 2 prevailed

Question: What about the Appearance ([3]; Initial) of the same compound?
Answer: White

Question: What about the “Chiral Purity” value ([3]; 2-week) of the same compound?
Answer: >99.9%

Question: And the “Chiral Purity” value ([3]; 4-week)?
Answer: 99.9%

Question: What about the “Chiral Purity” value ([3]; Initial) of the same compound?
Answer: 99.9%

Question: What about the “XRPD form after storage” value ([3]; two weeks (14 days), listed as CHP pattern 2) of the same compound?
Answer: no change in form

Question: What about the Appearance ([4]; 3M) of the same compound?
Answer: Off-white powder

Question: And the “Assay by HPLC” value ([4]; 3M)?
Answer: 103.3%

Question: And the “Chiral, HPLC: chiral purity” value ([4]; 3M)?
Answer: 100.0%

Question: What about the “Impurities, HPLC: H-His-OH” value ([4]; 3M) of the same compound?
Answer: 0.08%

Question: And the “Impurities, HPLC: each other individual (unspecified) impurity” value (from here on “Impurities, HPLC … (unspecified) impurity”) ([4]; 3M)?
Answer: individual <0.05%

Question: And the “Water content (KF)” value ([4]; 3M)?
Answer: 7.1%

Question: And the Appearance ([4]; 6M)?
Answer: Off-white powder

Question: What about the “Assay by HPLC” value ([4]; 6M) of the same compound?
Answer: 103.4%

Question: And the “Chiral, HPLC: chiral purity” value ([4]; 6M)?
Answer: 100.0%

Question: And the “Impurities, HPLC: H-His-OH” value ([4]; 6M)?
Answer: 0.08%

Question: What about the “Impurities, HPLC … (unspecified) impurity” value ([4]; 6M) of the same compound?
Answer: individual <0.05%

Question: And the “Water content (KF)” value ([4]; 6M)?
Answer: 7.2%

Question: What about the Appearance ([4]; Initial) of the same compound?
Answer: Off-white powder

Question: And the “Assay by HPLC” value ([4]; Initial)?
Answer: 103.4%

Question: And the “Chiral, HPLC: chiral purity” value ([4]; Initial)?
Answer: 100.0%

Question: What about the “Impurities, HPLC: H-His-OH” value ([4]; Initial) of the same compound?
Answer: 0.07%

Question: And the “Impurities, HPLC … (unspecified) impurity” value ([4]; Initial)?
Answer: individual <0.05%

Question: And the “Water content (KF)” value ([4]; Initial)?
Answer: 7.4%

Question: And the XRPD ([4]; Initial, vs reference standard of Pattern 2 (PS03027-15-H))?
Answer: Conform to reference
